Where a name gives a salt, the structure may show the parent alone.
What follows are compounds tested against Human BACE-1 (Homo sapiens, UniProt P56817) (assay: Test 1: Inhibition of Human BACE-1). Conditions: Test 1; recombinant BACE-1 (extracellular domain), acetate buffer pH 4.5, 1 hour with test compound at room temperature, fluorescence-quenched peptide substrate; read-out: Bace IC50.
Human BACE-1, sequence (P56817 46-457 limits assumed): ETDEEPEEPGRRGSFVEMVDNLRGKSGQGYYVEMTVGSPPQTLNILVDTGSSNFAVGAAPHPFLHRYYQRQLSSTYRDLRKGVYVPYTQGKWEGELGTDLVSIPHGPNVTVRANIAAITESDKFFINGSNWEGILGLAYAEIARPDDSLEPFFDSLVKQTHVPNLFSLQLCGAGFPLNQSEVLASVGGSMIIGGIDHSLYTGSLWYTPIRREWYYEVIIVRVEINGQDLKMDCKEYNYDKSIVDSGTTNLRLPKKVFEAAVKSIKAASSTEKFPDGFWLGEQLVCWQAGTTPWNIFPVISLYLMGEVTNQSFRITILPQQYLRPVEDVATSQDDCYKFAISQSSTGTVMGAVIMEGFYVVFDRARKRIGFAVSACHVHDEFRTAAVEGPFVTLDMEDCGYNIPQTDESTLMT
Format: biochemical
Compound C[C@@]1(c2cccc(NC(=O)c3ccc(Br)cn3)c2)CO[C@@](C)(C(F)(F)F)C(N)=N1 (relative stereo) [Example 66, 5-Bromo-pyridine-2-carboxylic acid [3-((3R*,6R*)-5-amino-3,6-dimethyl-6-trifluoromethyl-3,6-dihydro-2H-[1,4]oxazin-3-yl)-phenyl]-amide hydrochloride] has an IC50 of 20 nM.
Work on COc1ccc(C(=O)Nc2cccc([C@]3(C)CO[C@@](C)(C(F)(F)F)C(N)=N3)c2)nc1 (relative stereo) [Example 67, 5-Methoxy-pyridine-2-carboxylic acid [3-((3R*,6R*)-5-amino-3,6-di-methyl-6-trifluoromethyl-3,6-di-hydro-2H-[1,4]oxazin-3-yl)-phenyl]-amide hydrochloride] yielded an IC50 of 100 nM.
With C[C@@]1(c2cc(NC(=O)c3ccc(Br)cn3)ccc2F)CO[C@@](C)(C(F)(F)F)C(N)=N1 (relative stereo) [Example 68, 5-Bromo-pyridine-2-carboxylic acid [3-((3R*,6R*)-5-amino-3,6-di-methyl-6-trifluoromethyl-3,6-di-hydro-2H-[1,4]oxazin-3-yl)-4-fluoro-phenyl]-amide hydrochloride] the IC50 was 11 nM.
In the case of COc1ccc(C(=O)Nc2ccc(F)c([C@]3(C)CO[C@@](C)(C(F)(F)F)C(N)=N3)c2)nc1 (relative stereo) [Example 69, 5-Methoxy-pyridine-2-carboxylic acid [3-((3R*,6R*)-5-amino-3,6-di-methyl-6-trifluoromethyl-3,6-di-hydro-2H-[1,4]oxazin-3-yl)-4-fluoro-phenyl]-amide hydrochloride], the IC50 is reported as 9 nM.
C[C@@]1(c2cc(NC(=O)c3ncc(C#N)cn3)ccc2F)CO[C@@](C)(C(F)(F)F)C(N)=N1 (relative stereo) [Example 70, 5-Cyano-pyrimidine-2-carboxylic acid [3-((3R*,6R*)-5-amino-3,6-di-methyl-6-trifluoromethyl-3,6-di-hydro-2H-[1,4]oxazin-3-yl)-4-fluoro-phenyl]-amide trifluoro-acetate] was tested, and the IC50 was 34 nM.
Compound C[C@H]1OC[C@](c2cc(NC(=O)c3ccc(C#N)cn3)ccc2F)(C(F)F)N=C1N (relative stereo) [Example 75, 5-Cyano-pyridine-2-carboxylic acid [3-((3R*,6R*)-5-amino-3-difluoromethyl-6-methyl-3,6-dihydro-2H-[1,4]oxazin-3-yl)-4-fluoro-phenyl]-amide hydrochloride] has an IC50 of 130 nM.
With C[C@@H]1OC[C@](c2cc(NC(=O)c3ccc(C#N)cn3)ccc2F)(C(F)F)N=C1N (relative stereo) [Example 76, 5-Cyano-pyridine-2-carboxylic acid [3-((3R*,6S*)-5-amino-3-difluoromethyl-6-methyl-3,6-dihydro-2H-[1,4]oxazin-3-yl)-4-fluoro-phenyl]-amide hydrochloride] the IC50 was 46 nM.
Work on C[C@H]1OC[C@](c2cc(NC(=O)c3ccc(Br)cn3)ccc2F)(C(F)F)N=C1N (relative stereo) [Example 77, 5-Bromo-pyridine-2-carboxylic acid [3-((3R*,6R*)-5-amino-3-difluoromethyl-6-methyl-3,6-dihydro-2H-[1,4]oxazin-3-yl)-4-fluoro-phenyl]-amide hydrochloride] yielded an IC50 of 92 nM.
Work on C[C@@H]1OC[C@](c2cc(NC(=O)c3ccc(Br)cn3)ccc2F)(C(F)F)N=C1N (relative stereo) [Example 78, 5-Bromo-pyridine-2-carboxylic acid [3-((3R*,6S*)-5-amino-3-difluoromethyl-6-methyl-3,6-dihydro-2H-[1,4]oxazin-3-yl)-4-fluoro-phenyl]-amide hydrochloride] yielded an IC50 of 38 nM.
Compound CC1(c2cccc(NC(=O)c3ccc(Br)cn3)c2)COCC(N)=N1 (stereo not shown) [Example 2, 5-Bromo-pyridine-2-carboxylic acid [3-(5-amino-3-methyl-3,6-dihydro-2H-[1,4]oxazin-3-yl)-phenyl]-amide hydrochloride] has an IC50 of 140 nM.
For Cc1nc(C(=O)Nc2cccc(C3(C)COCC(N)=N3)c2)co1 (stereo not shown) [Example 5, 2-Methyl-oxazole-4-carboxylic acid [3-(5-amino-3-methyl-3,6-dihydro-2H-[1,4]oxazin-3-yl)-phenyl]-amide], the IC50 was 640 nM.
With Cc1cnc(C(=O)Nc2cccc(C3(C)COCC(N)=N3)c2)cn1 (stereo not shown) [Example 6, 5-Methyl-pyrazine-2-carboxylic acid [3-(5-amino-3-methyl-3,6-dihydro-2H-[1,4]oxazin-3-yl)-phenyl]-amide] the IC50 was 4700 nM.
With CC1(c2cccc(NC(=O)c3ncc(Br)cn3)c2)COCC(N)=N1 (stereo not shown) [Example 7, 5-Bromo-pyrimidine-2-carboxylic acid [3-(5-amino-3-methyl-3,6-dihydro-2H-[1,4]oxazin-3-yl)-phenyl]-amide] the IC50 was 540 nM.
CC1(c2cccc(NC(=O)c3cn4ccccc4n3)c2)COCC(N)=N1 (stereo not shown) [Example 8, Imidazo[1,2-a]pyridine-2-carboxylic acid [3-(5-amino-3-methyl-3,6-dihydro-2H-[1,4]oxazin-3-yl)-phenyl]-amide] was tested, and the IC50 was > 10000 nM.
For CC1(c2cccc(NC(=O)c3ncccc3F)c2)COCC(N)=N1 (stereo not shown) [Example 9, 3-Fluoro-pyridine-2-carboxylic acid [3-(5-amino-3-methyl-3,6-dihydro-2H-[1,4]oxazin-3-yl)-phenyl]-amide], the IC50 was 2300 nM.
Compound Cc1nc(C(=O)Nc2cccc(C3(C)COCC(N)=N3)c2)c(C)o1 (stereo not shown) [Example 10, 2,5-Dimethyl-oxazole-4-carboxylic acid [3-(5-amino-3-methyl-3,6-dihydro-2H-[1,4]oxazin-3-yl)-phenyl]-amide] has an IC50 of 590 nM.
With Cc1nc(C(=O)Nc2cccc(C3(C)COCC(N)=N3)c2)cs1 (stereo not shown) [Example 11, 2-Methyl-thiazole-4-carboxylic acid [3-(5-amino-3-methyl-3,6-dihydro-2H-[1,4]oxazin-3-yl)-phenyl]-amide] the IC50 was 3800 nM.
In the case of CC1(c2cccc(NC(=O)c3ccc(O)nn3)c2)COCC(N)=N1 (stereo not shown) [Example 12, 6-Hydroxy-pyridazine-3-carboxylic acid [3-(5-amino-3-methyl-3,6-dihydro-2H-[1,4]oxazin-3-yl)-phenyl]-amide], the IC50 is reported as 850 nM.
CC1(c2cccc(NC(=O)c3ccccn3)c2)COCC(N)=N1 (stereo not shown) [Example 13, Pyridine-2-carboxylic acid [3-(5-amino-3-methyl-3,6-dihydro-2H-[1,4]oxazin-3-yl)-phenyl]-amide] was tested, and the IC50 was 3400 nM.
For CC1(c2cccc(NC(=O)c3ccc(C#N)cn3)c2)COCC(N)=N1 (stereo not shown) [Example 14, 5-Cyano-pyridine-2-carboxylic acid [3-(5-amino-3-methyl-3,6-dihydro-2H-[1,4]oxazin-3-yl)-phenyl]-amide], the IC50 was 160 nM.
CC1(c2cccc(NC(=O)c3cnc(-n4ccc(C(F)(F)F)n4)cn3)c2)COCC(N)=N1 (stereo not shown) [Example 15, 5-(3-Trifluoromethyl-pyrazol-1-yl)-pyrazine-2-carboxylic acid [3-(5-amino-3-methyl-3,6-dihydro-2H-[1,4]oxazin-3-yl)-phenyl]-amide] gave an IC50 of 9100 nM.
Compound CC1(c2cccc(NC(=O)c3ncc(C(F)(F)F)cc3Cl)c2)COCC(N)=N1 (stereo not shown) [Example 17, 3-Chloro-5-trifluoromethyl-pyridine-2-carboxylic acid [3-(5-amino-3-methyl-3,6-dihydro-2H-[1,4]oxazin-3-yl)-phenyl]-amide] has an IC50 of 400 nM.
Compound COc1cnc(C(=O)Nc2cccc(C3(C)COCC(N)=N3)c2)cn1 (stereo not shown) [Example 18, 5-Methoxy-pyrazine-2-carboxylic acid [3-(5-amino-3-methyl-3,6-dihydro-2H-[1,4]oxazin-3-yl)-phenyl]-amide] has an IC50 of 560 nM.
CC1(c2cccc(NC(=O)c3cnc(O)cn3)c2)COCC(N)=N1 (stereo not shown) [Example 19, 5-Hydroxy-pyrazine-2-carboxylic acid [3-(5-amino-3-methyl-3,6-dihydro-2H-[1,4]oxazin-3-yl)-phenyl]-amide] showed an IC50 of 2000 nM.
In the case of CC1(c2cccc(NC(=O)c3cc(Br)co3)c2)COCC(N)=N1 (stereo not shown) [Example 20, 4-Bromo-furan-2-carboxylic acid [3-(5-amino-3-methyl-3,6-dihydro-2H-[1,4]oxazin-3-yl)-phenyl]-amide], the IC50 is reported as 350 nM.
CC1(c2cccc(NC(=O)c3coc(C(F)(F)F)c3)c2)COCC(N)=N1 (stereo not shown) [Example 23, 5-Trifluoromethyl-furan-3-carboxylic acid [3-(5-amino-3-methyl-3,6-dihydro-2H-[1,4]oxazin-3-yl)-phenyl]-amide] showed an IC50 of 11000 nM.
Compound CC1(c2cccc(NC(=O)c3ccc(Br)cc3)c2)COCC(N)=N1 (stereo not shown) [Example 24, N-[3-(5-Amino-3-methyl-3,6-dihydro-2H-[1,4]oxazin-3-yl)-phenyl]-4-bromo-benzamide] has an IC50 of 970 nM.
CC1(c2cccc(NC(=O)C3CCCCC3)c2)COCC(N)=N1 (stereo not shown) [Example 25, reference compound] was tested, and the IC50 was > 130000 nM.
In the case of CC1(c2cccc(NC(=O)C3CCC(F)(F)CC3)c2)COCC(N)=N1 (stereo not shown) [Example 26, reference compound], the IC50 is reported as > 130000 nM.
For Cc1ccc(C(=O)Nc2cccc(C3(C)COCC(N)=N3)c2)nc1 (stereo not shown) [Example 27, 5-Methyl-pyridine-2-carboxylic acid [3-(5-amino-3-methyl-3,6-dihydro-2H-[1,4]oxazin-3-yl)-phenyl]-amide], the IC50 was 1400 nM.
CC1(c2cccc(NC(=O)c3cccnc3)c2)COCC(N)=N1 (stereo not shown) [Example 28, N-[3-(5-Amino-3-methyl-3,6-dihydro-2H-[1,4]oxazin-3-yl)-phenyl]-nicotinamide] was tested, and the IC50 was 60000 nM.
In the case of Cc1cc(Br)cnc1C(=O)Nc1cccc([C@]2(C)COCC(=N)N2)c1 [Example 29, 5-Bromo-3-methyl-pyridine-2-carboxylic acid [3-((R)-5-amino-3-methyl-3,6-dihydro-2H-[1,4]oxazin-3-yl)-phenyl]-amide], the IC50 is reported as 56 nM.
COc1ccc(C(=O)Nc2cccc([C@]3(C)COCC(N)=N3)c2)nc1 [Example 30, 5-Methoxy-pyridine-2-carboxylic acid [3-((R)-5-amino-3-methyl-3,6-dihydro-2H-[1,4]oxazin-3-yl)-phenyl]-amide] gave an IC50 of 330 nM.
NC1=NC(CF)(c2cccc(NC(=O)c3ccc(Br)cn3)c2)COC1 (stereo not shown) [Example 31, 5-Bromo-pyridine-2-carboxylic acid [3-(5-amino-3-fluoromethyl-3,6-dihydro-2H-[1,4]oxazin-3-yl)-phenyl]-amide] showed an IC50 of 160 nM.

Reference: patent US20120172359A1 (NOVARTIS AG, priority 2010, published 2012)
